Experimental data reported in article PMC10477861, “Efficient Mining of Anticancer Peptides from Gut Metagenome” (Advanced Science, 2023).

Assays:
Details in all cases: 25 µM pACP, 24 h, maintenance medium 1% FBS, ratio of viability to vehicle (PBS), at least three technical repetitions
HT29 = experiment: MTT primary screening of anticancer activity, HT29; format: cell-based, Human
From the text: (§1) We successfully chemically synthesized 40 pACPs for the purpose of in vitro or in vivo characterization of their potential anticancer efficacy. In the initial step, we conducted an in vitro primary screen of these 40 pACPs using a panel of 16 different cancer cell lines, including four human CRC lines (HT29, Caco2, HCT116, and […]), as well as 12 other cancer models (Table S4, Supporting Information). We deliberately selected a diverse panel of cell lines to assess the effect of pACPs across various genetic backgrounds. Briefly, the cancer cells were cultured in specific media (details provided in the Experimental Section) and then treated with pACPs at a final concentration of 25 µM. Peptides with minimum effective inhibition concentrations >25 µM were considered non‐ACPs. After exposure to pACPs, the survival rate of the cancer cells was measured using the MTT assay. Remarkably, 39 out of the 40 pACPs (97.5%) induced at least 20% inhibition in at least one cell line (Figure 3a and Table S5, Supporting Information). […] Thus, our method successfully identified pACPs with a very high rate of anticancer effects across various cancer cell lines.
(§2) To evaluate the activity of the 40 potentially effective pACPs, a panel of 16 cancer cell lines was treated, including human CRC cell lines (HT29, Caco‐2, HCT116). Details of the cell lines used, respective media, and culture conditions were presented in Table S1 (Supporting Information). Once the cells reached 60% confluence, it was incubated with each candidate peptide at a concentration of 25 µM pACPs for 24 h. Concurrently, the complete medium was replaced with a maintenance medium containing only 1% FBS. Subsequently, the viability of each cell line using the MTT Cell Proliferation and Cytotoxicity Assay Kit according to the manufacturer's instructions was assessed. […] For the CRC cell line CT26, it was calculated the CC50 value using two peptides (pACP1780 and pACP2283) with relevant data presented in Table S6 (Supporting Information). The calculation was performed using an online tool: https://www.aatbio.com/tools/ic50‐calculator.

Caco2 = experiment: MTT primary screening of anticancer activity, Caco2; format: cell-based, Human
From the text: as §1, §2

HCT116 = experiment: MTT primary screening of anticancer activity, HCT116; format: cell-based, Human
From the text: as §1, §2

CT26 = experiment: MTT primary screening of anticancer activity, CT26; format: cell-based, Murine
From the text: as §1, §2

MDA-MB-231 = experiment: MTT primary screening of anticancer activity, MDA-MB-231; format: cell-based
From the text: as §1, §2

MDA-MB-436 = experiment: MTT primary screening of anticancer activity, MDA-MB-436; format: cell-based
From the text: as §1, §2

MDA-MB-453 = experiment: MTT primary screening of anticancer activity, MDA-MB-453; format: cell-based
From the text: as §1, §2

MDA-MB-468 = experiment: MTT primary screening of anticancer activity, MDA-MB-468; format: cell-based
From the text: as §1, §2

SK-BR-3 = experiment: MTT primary screening of anticancer activity, SK-BR-3; format: cell-based
From the text: as §1, §2

BT474 = experiment: MTT primary screening of anticancer activity, BT474; format: cell-based
From the text: as §1, §2

T47D = experiment: MTT primary screening of anticancer activity, T47D; format: cell-based
From the text: as §1, §2

EFM192A = experiment: MTT primary screening of anticancer activity, EFM192A; format: cell-based
From the text: as §1, §2

B16 = experiment: MTT primary screening of anticancer activity, B16; format: cell-based, Mouse
From the text: as §1, §2

MCF7 = experiment: MTT primary screening of anticancer activity, MCF7; format: cell-based
From the text: as §1, §2

Hela = experiment: MTT primary screening of anticancer activity, Hela; format: cell-based, Human
From the text: as §1, §2

LCC = experiment: MTT primary screening of anticancer activity, LCC; format: cell-based
From the text: as §1, §2

Measured: Survival rate of cancer cells in primary screening

YRKCDTAGGLSKLCVAEKDIKIIWKYGGR [pACP2334]
0.76: B16
0.78: T47D
1.00: all other assays above

KSLQMVLSFVIIFADKKKTLATLIVAKKKKGW [pACP1096]
0.71: HT29
0.69: MDA-MB-436
1.00: all other assays above

NTGGIQKIQPLRKTDPLLAPCVSGRIGCPGRRCS [pACP1412]
0.74: T47D
0.80: B16
1.00: all other assays above

GVPMGSVIKKRRKRMAKKKHRKLLRKTRHQRRNKK [pACP593]
0.78: BT474
0.74: Hela
0.63: MDA-MB-453
0.71: T47D
1.00: all other assays above

SPLKGGGLLPPAGFCPRRVLCRLPTGWKKGKPSGQMPLFRIWRKVMVMK [pACP1985]
0.31: MDA-MB-468
0.0378: MDA-MB-436
0.10: MDA-MB-231
0.07: EFM192A
0.79: B16
0.15: T47D
0.08: MDA-MB-453
0.24: SK-BR-3
0.77: CT26
0.19: MCF7
0.0132: Hela
0.05: BT474
1.00: all other assays above

IPNKKAGSRCLSKKCLLPAKRAFEIHFLTQLTGDIKGI [pACP766]
0.61: T47D
0.59: MCF7
0.52: MDA-MB-436
0.68: Caco2 | Hela
0.71: BT474
0.47: HT29
1.00: all other assays above

KFCSSFFKSLQFPKAETLVGFKGKALKISNVLIKKSPIIK [pACP860]
0.78: MCF7 | Hela
0.60: MDA-MB-468
0.77: B16
0.70: BT474
0.75: T47D
1.00: all other assays above

NSFCRQTALCSVALGQYRTKIVRQMRRQIFRQMKQKAE [pACP1403]
0.71: T47D
0.73: MDA-MB-468
1.00: all other assays above

ERRVGYSWYGTWGNKVLKKYPEWLRRLTEKK [pACP341]
0.66: MCF7
0.62: BT474
0.60: CT26
0.74: MDA-MB-468 | B16
1.00: all other assays above
